Experiments:
PBMC [1] = experiment: 193 ssRNA 4mer-motif library screen: IL-12 (IL-12p40) production in PBMC of six donors, poly-L-Arg complexation, ELISA at 44 hours, IL-12 index and adjusted IL-12 index; type: cell-based, human; set-up: key to Adjusted IL-12 index Mean: IL-12 index (ratio to 9.2sense) minus donor mean, averaged over 6 donors; details: for Adjusted IL-12 index Mean: 193 ssRNA oligonucleotide library, data from six individual donors summarized, ascending order
Procedure, shortened: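 Human PBMC from six healthy donors were stimulated in duplicate with poly-L-arginine-complexed ssRNA oligonucleotides, and IL-12p40 in supernatant was measured by ELISA at 44 h. Each value was divided by the 9.2sense control on the same plate (IL-12 index), then the donor's mean index was subtracted; adjusted indices are means ± SEM over donors.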

PBMC [2] = experiment: IL-12p70 production in PBMC stimulated with complexed RNA oligonucleotides or TLR ligands, ELISA of supernatant after 24 hours; type: cell-based, human; details: for IL-12p70 production within PBMC: TLR ligands at optimal concentrations, RNA complexed with poly-L-arginine
Procedure: FIG. 5: PBMC from three different healthy donors were isolated and stimulated with the following stimuli (form left to right): medium, Poly I:C (10 μg/ml), LPS (1 μg/ml), 3M-001 (1 μM), 3M-007 (1 μM), R848 (5 μg/ml), 3M-002 (1 μM), CpG ODN2216 (3 μg/ml), (the following stimuli were all complexed using poly-L-arginine 88) medium, polyA ssRNA, poly U ssRNA, polyA/U dsRNA, polyc ssRNA, polyG ssRNA, poly C/G dsRNA, 9.1 sense ssRNA, 9.1antisene ssRNA, 9.1duplex dsRNA, 9.2sense ssRNA, 9.2 antisene ssRNA, 9.2duplex dsRNA, 9.3sense ssRNA, 9.3antisene ssRNA and 9.3duplex dsRNA. 24 hours after stimulation supernatants were harvested and analyzed for IL-12p70 (A) and TNF-a (B) production. Data from three individual donors were summarized and depicted as mean values ±SEM. […]

Compound: 5′-AGCUUAACCUGUCCUUCAA-3′ (RNA, backbone not given here) [9.2sense, standard ssRNA oligonucleotide, positive control on all cell culture plates]
- IL-12 in supernatant, mean of the two raw values of the duplicates (PBMC [1]; donor 3, poly-L-Arg complexed, 44 hours): 908 pg/mL
- IL-12p70 production, absolute value (PBMC [2]; donor 1, complexed with poly-L-arginine of approx. 88 amino acids): 1390 pg/mL
- IL-12p70 production, absolute value (PBMC [2]; donor 2, complexed with poly-L-arginine of approx. 88 amino acids): 396 pg/mL

Compound: polyU
- IL-12p70 production within PBMC (PBMC [2]): slight yet consistent IL-12 response

Compound: CCCc1nc2c(N)nc3ccccc3c2s1 [3M-002]
- IL-12p70 production within PBMC (PBMC [2]): able to induce IL-12p70 production

Compound: polyC
- IL-12p70 production within PBMC (PBMC [2]): no activity

Compound: polyA
- IL-12p70 production within PBMC (PBMC [2]): no activity
- IL-12p70 production within PBMC (PBMC [2]; listed as poly adenosine RNA oligonucleotides): completely inactive
- IL-12p70 production within PBMC (PBMC [2]; listed as poly adenosine oligonucleotides): inactive

Compound: CCOCc1nc2c(N)nc3ccccc3c2n1CC(C)(C)O [R848]
- IL-12p70 production within PBMC (PBMC [2]): able to induce IL-12p70 production

Compound: AAAAAAAUAGUAAAAAAAA (RNA, backbone not given here) [ANP-Oligo 154]
- Adjusted IL-12 index Mean (PBMC [1]): 1.57
- adjusted IL-12 index (PBMC [1]; summarized from all six donors): 1.57

Compound: AAAAAAACCAGAAAAAAAA (RNA, backbone not given here) [ANP-Oligo 063]
- Adjusted IL-12 index Mean (PBMC [1]): −0.57

Compound: AAAAAAAAUGUAAAAAAAA (RNA, backbone not given here) [ANP-Oligo 046]
- Adjusted IL-12 index Mean (PBMC [1]): 0.97

Compound: AAAAAAAGGAUAAAAAAAA (RNA, backbone not given here) [ANP-Oligo 124]
- Adjusted IL-12 index Mean (PBMC [1]): 0.63

Compound: AAAAAAAGGGGAAAAAAAA (RNA, backbone not given here) [ANP-Oligo 129]
- Adjusted IL-12 index Mean (PBMC [1]): −0.51

Compound: AAAAAAAAGGAAAAAAAAA (RNA, backbone not given here) [ANP-Oligo 009]
- Adjusted IL-12 index Mean (PBMC [1]): −0.66

Compound: AAAAAAAUGGCAAAAAAAA (RNA, backbone not given here) [ANP-Oligo 176]
- Adjusted IL-12 index Mean (PBMC [1]): 2.41

Compound: AAAAAAACCGGAAAAAAAA (RNA, backbone not given here) [ANP-Oligo 069]
- Adjusted IL-12 index Mean (PBMC [1]): −0.64

Compound: AAAAAAAUCGGAAAAAAAA (RNA, backbone not given here) [ANP-Oligo 165]
- Adjusted IL-12 index Mean (PBMC [1]): −0.26

Compound: AAAAAAACCUCAAAAAAAA (RNA, backbone not given here) [ANP-Oligo 071]
- Adjusted IL-12 index Mean (PBMC [1]): −0.56

Compound: AAAAAAAAUUGAAAAAAAA (RNA, backbone not given here) [ANP-Oligo 048]
- Adjusted IL-12 index Mean (PBMC [1]): −0.35

Compound: AAAAAAAAUAUAAAAAAAA (RNA, backbone not given here) [ANP-Oligo 040]
- Adjusted IL-12 index Mean (PBMC [1]): −0.04

Compound: AAAAAAAACUUAAAAAAAA (RNA, backbone not given here) [ANP-Oligo 025]
- Adjusted IL-12 index Mean (PBMC [1]): −0.31

Compound: AAAAAAACAGGAAAAAAAA (RNA, backbone not given here) [ANP-Oligo 057]
- Adjusted IL-12 index Mean (PBMC [1]): −0.6

Compound: AAAAAAACGGCAAAAAAAA (RNA, backbone not given here) [ANP-Oligo 080]
- Adjusted IL-12 index Mean (PBMC [1]): −0.65

Compound: AAAAAAAGCAUAAAAAAAA (RNA, backbone not given here) [ANP-Oligo 112]
- Adjusted IL-12 index Mean (PBMC [1]): 0.08

Compound: AAAAAAACAAUAAAAAAAA (RNA, backbone not given here) [ANP-Oligo 052]
- Adjusted IL-12 index Mean (PBMC [1]): −0.37

Compound: AAAAAAACGUUAAAAAAAA (RNA, backbone not given here) [ANP-Oligo 085]
- Adjusted IL-12 index Mean (PBMC [1]): 0.57

Compound: AAAAAAAGGAGAAAAAAAA (RNA, backbone not given here) [ANP-Oligo 123]
- Adjusted IL-12 index Mean (PBMC [1]): −0.51

Compound: AAAAAAAAUUUAAAAAAAA (RNA, backbone not given here) [ANP-Oligo 049]
- Adjusted IL-12 index Mean (PBMC [1]): −0.07

Compound: AAAAAAAUGCCAAAAAAAA (RNA, backbone not given here) [ANP-Oligo 173]
- Adjusted IL-12 index Mean (PBMC [1]): 1.22

Compound: AAAAAAAUGUGAAAAAAAA (RNA, backbone not given here) [ANP-Oligo 180]
- Adjusted IL-12 index Mean (PBMC [1]): 1.31

Compound: AAAAAAAUGAGAAAAAAAA (RNA, backbone not given here) [ANP-Oligo 171]
- Adjusted IL-12 index Mean (PBMC [1]): 0.22

Compound: AAAAAAAUAGCAAAAAAAA (RNA, backbone not given here) [ANP-Oligo 152]
- Adjusted IL-12 index Mean (PBMC [1]): 0.35

Compound: AAAAAAAGAUUAAAAAAAA (RNA, backbone not given here) [ANP-Oligo 109]
- Adjusted IL-12 index Mean (PBMC [1]): 0.22

Compound: AAAAAAAGCUGAAAAAAAA (RNA, backbone not given here) [ANP-Oligo 120]
- Adjusted IL-12 index Mean (PBMC [1]): −0.38

From patent publication US8815503B2, “Compositions and methods for immunostimulatory RNA oligonucleotides” (Rheinische Friedrich-Wilhelms-Universitat Bonn, priority 2005, dated 2014)
